What was measured:
Format in all cases: in vivo, human
subjects with MDD [1] = assay: Treatment-emergent adverse events, full safety analysis set
[2] = Body weight by treatment group
Excerpt: Treatment with crystalline Form I of aticaprant, crystalline Form II of aticaprant, crystalline Form III of aticaprant, or amorphous aticaprant as described herein has several advantages over the treatments in the art. […] As used herein, the term “weight gain” refers to an increase in the weight of patient, relative to the weight of the patient before taking crystalline Form I of aticaprant, crystalline Form II of aticaprant, crystalline Form III of aticaprant, or amorphous aticaprant or the weight of the patient that is assessed at the time of the initial administration of the crystalline Form I of aticaprant, crystalline Form II of aticaprant, crystalline Form III of aticaprant, or amorphous aticaprant. In certain embodiments, the patient may actually see a decrease in overall weight, relative to the weight of the patient before taking crystalline Form I of aticaprant, crystalline Form II of aticaprant, crystalline Form III of aticaprant, or amorphous aticaprant.
At the lead-in baseline timepoint, the mean weight for subjects in the placebo group was 76.17 kg compared to 78.66 in the aticaprant group. After 6 weeks in the double-blind treatment phase, the mean weight in the placebo group was 75.75 kg compared to 78.57 kg in the aticaprant group. […] This is unexpected because other adjunctive treatments for MDD result in a mean weight increase. See, Thase M, et al. J Clin Psych. 2015: 76 (9), 1224-1231; Thase, J Clin Psych. 2015, 76 (9): 1232-1240; El Khalili, Int J Neuropsychopharmacol. 2010, 13, 917-932; Marcus, J. Clin. Psychopharmacol. […] Nashville, Tenn, ACNP, 2008; Earley, American College of Neuropsychopharmacology, 2007, Annual Meeting Abstracts (Boca Raton, Fla, Dec. 9-13, 2007). Nashville, TN, ACNP, 2007). See, Table 65.

subjects with MDD [3] = assay: HAM-A6 total score (anxiety), same study; conditions: Treatment Week 6
Excerpt: The secondary objectives are: • i. […] To investigate the effect of aticaprant versus placebo on depression related anhedonia as assessed by the SHAPS. • iv. To investigate the effect of aticaprant on symptoms of depression using the Clinical Global Impression-Severity (CGI-S), the patient reported Symptoms of Major Depressive Disorder Scale (SMDDS) and the self-assessment of treatment experience (SATE). • V. To investigate the effect of aticaprant on symptoms of anxiety using the HAM-A and on core symptoms of anxiety using the HAM-A6 subscale. • vi. To assess the plasma PK of aticaprant in subjects with MDD and explore its relationship with efficacy and safety parameters.
• (i) Depression: Montgomery-Åsberg Depression Rating Scale (MADRS), Clinical Global Impression-Severity (CGI-S), Symptoms of Major Depressive Disorder Scale (SMDDS), and Self-assessment of treatment experience (SATE) • (ii) Anhedonia: Snaith-Hamilton Pleasure Scale (SHAPS) • (iii) Anxiety: Structured Interview Guide for the Hamilton Anxiety scale (SIGH-A) and HAM-A6 • (iv) Effects on Cognition: The Cognitive and Physical Functioning Questionnaire (CPFQ) • (v) Safety assessments

[4] = Treatment Period, Full Safety Analysis Set, aticaprant 10 mg (N = 85)

Cc1cc(C)cc(C2CCCN2Cc2ccc(Oc3ccc(C(N)=O)cc3F)cc2)c1 (stereo not drawn) [aticaprant, 3-fluoro-4-4-2-(3,5-dimethylphenyl) pyrrolidin-1-yl-methylphenoxybenzamide]
Subjects with 1 or more serious TEAE (subjects with MDD [1]; [4]): 0 n | Subjects with TEAE leading to death (subjects with MDD [1]; [4]): 0 n | TEAE of Special Interest: Abdominal Pain Upper (subjects with MDD [1]; [4]): 0 n | patients who experienced acute cholecystitis (subjects with MDD [1]; treatment period): 0 patients | subjects who experienced TEAEs of special interest (subjects with MDD [1]; treatment period, 13/85): 15.3% | subjects who discontinued due to treatment-emergent adverse events (subjects with MDD [1]; treatment period, due to diarrhea, nausea, vomiting and headache): 1 subject | subjects with TEAE diarrhea (subjects with MDD [1]; treatment period, full safety analysis set, 7/85): 8.2% | subjects with TEAE headache (subjects with MDD [1]; treatment period, full safety analysis set, 10/85): 11.8% | subjects who experienced at least one TEAE (subjects with MDD [1]; treatment period, full safety analysis set, 40/85): 47.1% | Mean weight, mean (SE) ([2]; Lead-in Baseline, n = 85): 78.66 (1.65) kg | Mean weight, mean (SE) ([2]; Screening, n = 85): 78.42 (1.65) kg | Mean weight, mean (SE) ([2]; Withdrawal Baseline (after 6 weeks double-blind treatment), n = 85): 78.57 (1.71) kg | Mean weight Relative % Change ([2]; Withdrawal vs Lead-in, n = 85): −0.11% | mean weight ([2]; after 6 weeks in the double-blind treatment phase, lead-in baseline 78.66): 78.57 kg | weight over the 6-week double blind treatment period (in words) ([2]; in vivo): remained relatively stable | Mean weight Absolute Change (Withdrawal-Lead-in) ([2]; n = 85): -0.09 kg | HAM-A6 score, aticaprant treated patients vs. placebo (in words) (subjects with MDD [3]): greater improvement | Change from Treatment Baseline in HAM-A6 Total Score: Arithmetic Mean (SD) (subjects with MDD [3]; aticaprant 10 mg, 59 subjects analyzed): −2.73 ± 2.651 scores on a scale

— patent publication US12171743B2, “Forms of aticaprant” (Janssen Pharmaceuticals, Inc., priority 2022, dated 2024)
